These results are taken from patent US20210228467A1, “High-Potency Vitamin C Topical Formulations” (Baek Clinical Inc., priority 2018, published 2021).

The conditions of series [1]: use of 4% HQ versus 5% Vitamin C; cited from earlier work.
Series [2] is described as follows: Solubility of optional additional components in polyol solvents. Format: physicochemical. The text has this:
Additional ingredients were chosen for their compatibility with (e.g., miscibility in) 1,3 propanediol, 1,2 propanediol, and 1,3 butanediol.

For series [3] the following is noted: cited from earlier work.
For series [4] the following is noted: 20% urea solution, cited from earlier work.
A short description of series [5]: Solubilization / recrystallization of AA with urea in 1,3 propanediol. It counts as physicochemical. The source says: Next, concentrations of ascorbic acid beyond the aforementioned maximum concentration are solubilized, using urea as a co-solvent.
Series [6] in a line: Comparative studies: solubilization with heating and crystallization on room temperature storage. Format: physicochemical. As to conditions: ascorbic acid together with urea in propylene glycol, butylene glycol and propanediol. How it is done:
This example was reproduced.
All mixtures were heated to 85° C.

Where two headings read alike, the source gives them in different places.

For the compound `O=C1O[C@H]([C@@H](O)CO)C(O)=C1O` [AA, L-ascorbic acid], the improvement in series [1] is 62.5%.
For the compound `COc1cc(CC(C(C)=O)C(C)=O)ccc1O` [Acetyl zingerone], the solubility entry in series [2] (in 1,3 propanediol, 1,2 propanediol and 1,3 butanediol at 0.5-1%) is reported as “readily soluble”.
By pKa is commonly meant the negative logarithm of the acid dissociation constant. For the compound `O=C(O)CCCCCCCC(=O)O` [AzA, Azelaic acid, reference compound], in series [3], the pKa is given as 4.15. For the same compound, the concentration solubilized entry in series [2] (in 1,3 propanediol) is “up to 10%”; in series [2] (with 10% AA, 5% U in a 1,3 propanediol base), 7.5%.
In the case of `Oc1ccc(O)cc1` [HQ, hydroquinone], in series [1], the improvement is reported as 93% and the side-effects is recorded as 68.7%.
For the compound `NC(N)=O` [U, urea], the pH in series [4] (after 11 months at room temperature) is 8.8; in series [4] (start), 7.4. Besides, in series [5], the “minimum amount U required to solubilize 20% AA” value was ~10%. In series [5], the “saturation of U reached before recrystallization of U” value is ~27.8%. Further, the “maximum concentrations soluble before urea starts to precipitate (the ceiling)” value in series [6] is 20%.
As for `CC1(C)[C@@H](O[C@H]2O[C@H](C(=O)O)[C@@H](O)[C@H](O)[C@H]2O[C@@H]2O[C@H](C(=O)O)[C@@H](O)[C@H](O)[C@H]2O)CC[C@]2(C)[C@H]3C(=O)C=C4[C@@H]5C[C@@](C)(C(=O)O)CC[C@]5(C)CC[C@@]4(C)[C@]3(C)CC[C@@H]12` [glycyrrhizic acid, Glycyrrhizic acid], the solubility entry in series [2] (in 1,3-propanediol) is reported as “shows solubility”.
On to Madecassoside, for which the solubility result in series [2] (at a concentration of 0.2% in 1,3 propanediol, 1,2 propanediol and 1,3 butanediol) is “soluble”.
